A short description of this data set: gradient 5% acetonitrile 3 min, to 50% in 2 min, to 85% in 15 min, held 3 min, 100 µL/min. The conditions noted are these: column: Zorbax Extend-C18 2.1 x 50 mm; eluents: water / acetonitrile, 0.1% formic acid. The essentials: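 The system's dead and dwell volumes were 40 μL and 900 μL, with a Zorbax Extend-C18 column (2.1 × 50 mm, 1.8 μm) run at 100 μL/min in water and acetonitrile containing 0.1% formic acid each. Pure standards were analyzed in mixtures of ~100 molecules by HPLC–quadrupole time-of-flight mass spectrometry in positive and negative ionization mode. Retention time was assigned from computationally picked, manually inspected adduct peaks.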
In turn, `CN1C2CCC1CC(OC(c1ccccc1)c1ccc(Cl)cc1)C2` (stereo unspecified) displayed an RP-LC retention time of 862 s.

`Cc1ccccc1Oc1nccnc1N1CCCC(C(=O)NCc2cccc(Br)c2)C1` (stereo unspecified) showed an RP-LC retention time of 1290 s.

`O=C(CSc1ncccn1)N1CCCC1` displayed an RP-LC retention time of 591 s.

`CN1C(=O)C2CCCCN2c2ccc(C(=O)NCCCc3ccccc3)cc21` (stereo unspecified) gave an RP-LC retention time of 939 s.

`Cc1cccc(-n2c(=O)c3c(cc(C)n3C)n(CC(=O)Nc3ccc(Br)cc3F)c2=O)c1` displayed an RP-LC retention time of 963 s.

Regarding `O=c1c(NC2CCCC2)nc2ccncc2n1Cc1ccccc1`, the RP-LC retention time was found to be 682 s.

In turn, `CCCCNC(=O)C1Cc2cc(S(=O)(=O)N3CCCCC3)ccc2N1C(=O)CC` (stereo unspecified) yielded an RP-LC retention time of 885 s.

`COc1cc(=O)n2c(c1C(=O)Nc1ccc(N(C)C)cc1)CCCC2`: the RP-LC retention time came out at 567 s.

`O=C(Nc1ccc2c(c1)OCO2)C1CCN(C(=O)c2ccccc2F)CC1` came in with an RP-LC retention time of 741 s.

The molecule `Cc1oc2ccn(C)c(=O)c2c1C(=O)NCc1cccc(Br)c1` gave an RP-LC retention time of 947 s.

In turn, `CCC1CN2C=Nc3oc(C)c(C(=O)NCCc4ccc(OC)c(OC)c4)c3C2=N1` (stereo unspecified) yielded an RP-LC retention time of 645 s.

`O=C(Nc1ccccn1)c1csc2nc(-c3ccc(F)cc3)cn12` showed an RP-LC retention time of 808 s.

For `COc1ccc(Cl)cc1NC(=O)N1C[C@@H](F)C[C@H]1C(=O)N1CCc2ccccc2C1`, the RP-LC retention time worked out at 933 s.

For `O=S(=O)(c1ccc2nc(N3CCN(c4cccc(Cl)c4)CC3)ccc2c1)N1CCCC1`, the RP-LC retention time was determined as 1100 s.

The molecule `Cc1ccc(NC(=O)N2CCCC(Cn3cnc4cccnc43)C2)cc1Cl` (stereo unspecified) showed an RP-LC retention time of 747 s.

Take `CCCCC(=O)Nc1ccc(N(C)CCc2c(C)nn(C)c2C)c(C(=O)O)c1`: the RP-LC retention time was 576 s.

`CSc1cccc(NC(=O)NCCc2cn(C)c3ncccc23)c1` displayed an RP-LC retention time of 716 s.

As to `Cc1ccc(-c2nc(N3CCCCCC3)c3ccccc3n2)cc1`, the RP-LC retention time turned out to be 833 s.

In the case of `O=C(Nc1cccc(NC(=O)c2cccc(O)c2O)c1)c1cccc(O)c1O`, the RP-LC retention time came to 765 s.

Regarding `O=C(NCc1ccc(C(F)(F)F)cc1)c1cn2ccccc2n1`, the RP-LC retention time was found to be 746 s.

In turn, `CCN1C(=O)c2cccnc2Sc2cc(CNC(=O)COc3cccc(C)c3)ccc21` showed an RP-LC retention time of 846 s.

As to `CC(C)n1c(N2CCCN(C(=O)COc3ccccc3)CC2)cc(=O)n(C(C)C)c1=O`, the RP-LC retention time stood at 843 s.

The molecule `CCc1ccc2c(c1)cc(S(=O)(=O)c1ccccc1)c(=O)n2CC(=O)NC(C)C` displayed an RP-LC retention time of 882 s.

Molecule `CCn1ncc(NC(=O)COc2ccccc2C)c(N2CCCCC2)c1=O` came in with an RP-LC retention time of 1150 s.

Turning to `Cc1ccccc1Nc1c(-c2ccccc2)nc2c(C)cccn12`, the RP-LC retention time was determined as 733 s.

Consider `O=C(Cn1c(=O)c2cccn2c2ccccc21)NCCCN1CCCCC1`, for which the RP-LC retention time is 595 s.

`O=C(COCc1nnc(C(=O)Nc2cccc(F)c2)s1)NCCc1c[nH]c2ccccc12` gave an RP-LC retention time of 893 s.

In turn, `CCCc1nc(C2CC(=O)N(c3ccc(OC)cc3)C2)no1` (stereo unspecified) showed an RP-LC retention time of 828 s.

In turn, `Cc1ccc(CN2C[C@@H](CO)[C@H](NC(=O)c3cnccn3)C2)o1` registered an RP-LC retention time of 550 s.

In the case of `CCC(C)NC(=O)c1cnn(-c2cc(-c3nc(C(C)C)no3)ccn2)c1C` (stereo unspecified), the RP-LC retention time came to 617 s.

Consider `CCC(=O)N1CCc2cc(N3CC(C(=O)NCc4ccc(F)cc4F)CC3=O)ccc21` (stereo unspecified), for which the RP-LC retention time was determined as 755 s.

Molecule `O=C(NC1CC1)c1ccc(N2CCC(NCc3ccc(F)c(F)c3)C2)nc1` (stereo unspecified) displayed an RP-LC retention time of 567 s.

Molecule `CCCCOc1ccc(C(=O)Nc2ccc(-c3nc(C)no3)cc2)cc1` had an RP-LC retention time of 1070 s.

`Cc1ccc(CNC(=O)Cn2nc(C(=O)N3CCCC3)c3ccccc32)o1` displayed an RP-LC retention time of 755 s.

For the molecule `Cc1ccc(C2Cn3cnc(C(=O)N4CCC(C(=O)NCc5cccs5)CC4)c3CO2)cc1` (stereo unspecified), the RP-LC retention time amounted to 756 s.

For `COc1ccccc1N1CCN(C(=O)C2=CCN(Cc3ccccc3)CC2)CC1`, the RP-LC retention time amounted to 629 s.

Turning to `COc1ccc(C(=O)NC(CC(C)C)C(=O)Nc2nc3ccccc3[nH]2)cc1OC` (stereo unspecified), the RP-LC retention time was 705 s.

The molecule `O=C(Cc1ccsc1)Nc1ccc(N2CCN(Cc3ccccc3)C2=O)nc1` came in with an RP-LC retention time of 643 s.

For `CS(=O)(=O)N1CCc2nn(Cc3ccccc3)c(=O)n2CC1`, the RP-LC retention time was 641 s.

For the molecule `COCCCNC(=O)C1CCN(S(=O)(=O)N(CC(C)C)CC(C)C)CC1`, the RP-LC retention time is 877 s.

On to `O=C(C1CCCN(Cc2nc(-c3ccncc3)no2)C1)N1CCN(c2ncccn2)CC1` (stereo unspecified), for which the RP-LC retention time stood at 559 s.

Regarding `CCOc1nccnc1N1CCC(N(C)C(=O)c2ccc(C)nc2)C1` (stereo unspecified), the RP-LC retention time came to 597 s.

In turn, `Cc1cc(C(=O)NC2CCCCC2)nn1C` showed an RP-LC retention time of 755 s.

For the molecule `CCOc1ccc(-c2ccc(=O)n(CCNC(=O)c3cn(C)nc3OC)n2)cc1`, the RP-LC retention time worked out at 645 s.

The molecule `Cc1sc(C)c(S(=O)(=O)Nc2ccccc2F)c1-c1cc(C(F)(F)F)on1` registered an RP-LC retention time of 1130 s.

The molecule `Cn1nnc2ccc(-c3noc(CNC(=O)c4cccs4)n3)cc21` displayed an RP-LC retention time of 712 s.

`Cc1nn(C)c(=O)c2cc(S(=O)(=O)NCc3ccccc3Cl)cn12`: the RP-LC retention time is 807 s.

In the case of `COc1cc(-c2noc(Cn3c(=O)n(-c4ccccc4)c(=O)c4sccc43)n2)cc(OC)c1OC`, the RP-LC retention time is 868 s.

Molecule `COc1cccc(CCC(=O)Nc2ccc3c(c2)Sc2ncccc2C(=O)N3C)c1` displayed an RP-LC retention time of 1210 s.

`CCCN(CCC)S(=O)(=O)c1cccc(-c2cn3cc(C)ccc3n2)c1` registered an RP-LC retention time of 731 s.

On to `Cc1cc(C(=O)NCC2Cn3cccc3C(=O)N2C)n(C)n1` (stereo unspecified), for which the RP-LC retention time amounted to 600 s.

`Cn1c(-c2cccc(C(=O)NCc3cccs3)c2)nc2cccnc21` yielded an RP-LC retention time of 688 s.

`CCc1c(C(=O)O)nnn1-c1ccc(C)c(C)c1`: the RP-LC retention time was determined as 783 s.

Take `c1cn(-c2ccc(SC3CCCC3)nn2)cn1`: the RP-LC retention time was found to be 604 s.

As for `COc1ccc(CN2CC3(CCN(S(=O)(=O)c4c(C)noc4C)CC3)C2=O)cc1`, the RP-LC retention time came out at 842 s.

Molecule `COc1ccccc1-c1noc(-c2nnn3c2COC(c2ccc(C)cc2C)C3)n1` (stereo unspecified) registered an RP-LC retention time of 1250 s.

The molecule `COc1cccc(CNC(=O)Cn2nc3cc(-c4ccncc4)nc(C)n3c2=O)c1` gave an RP-LC retention time of 640 s.

`COc1ccccc1CNC(=O)c1ccc2c(c1)nc1n2CCN(Cc2ccccc2)C1=O` displayed an RP-LC retention time of 789 s.

`CC(C)NC(=O)NCC1Cn2cccc2C(=O)N1Cc1ccccc1` (stereo unspecified) came in with an RP-LC retention time of 696 s.

Molecule `O=C(c1ccco1)N1CCC(n2c(-c3ccoc3)nc3cccnc32)C1` (stereo unspecified) yielded an RP-LC retention time of 650 s.

The molecule `O=C1NC2(CCN(C(=O)c3ccccc3)CC2)N=C1c1cccc(Cl)c1` returned an RP-LC retention time of 869 s.

On to `CCCn1cc(-c2nc(-c3cc(OC)c(OC)c(OC)c3)no2)c(=O)c2ccccc21`, for which the RP-LC retention time is 798 s.

With `O=C(c1ccccc1Cl)N(CCc1ccccc1)Cc1ccccn1`, the RP-LC retention time turned out to be 790 s.

`CC(=O)N(Cc1nn(C)c2c1CN(S(=O)(=O)c1ccccc1)CC2)c1ccccc1` displayed an RP-LC retention time of 766 s.

The molecule `Cc1cc(-c2nnc(-c3ccc(F)cc3)o2)c(C)n1CC(=O)NCc1ccccn1` gave an RP-LC retention time of 673 s.

In turn, `c1ccc(-c2nc3nccc(-c4ccncc4)n3n2)cc1` came in with an RP-LC retention time of 699 s.

`Cc1c(Cc2ccccc2)sc(NC(=O)C2CCCCC2C(=O)O)c1C(N)=O` (stereo unspecified) yielded an RP-LC retention time of 769 s.

The molecule `O=C(Nc1ccc(F)cc1)C1CC(=O)N(CCc2c[nH]c3ccc(Cl)cc23)C1` (stereo unspecified) registered an RP-LC retention time of 871 s.

Take `COc1ccc(Cl)cc1NC(=O)Cn1nc(N2CCSCC2)c2ccccc2c1=O`: the RP-LC retention time came to 1080 s.

For the molecule `Fc1cccc(-c2nnc(Cc3nc(-c4cccc(Cl)c4)no3)o2)c1`, the RP-LC retention time came out at 1070 s.

Take `Cn1nc(C(=O)Nc2ccccc2)c2c1CCN(C(=O)NCC1CCCO1)C2` (stereo unspecified): the RP-LC retention time amounted to 702 s.

Consider `CCOc1ccc(C(C)NC(=O)c2cn3ccc(C)cc3n2)cc1` (stereo unspecified), for which the RP-LC retention time is 697 s.

On to `CSc1nnc(Cc2nnc(SC)n2-c2ccccc2)n1-c1ccccc1`, for which the RP-LC retention time came to 784 s.

`CC(C)C(NC(=O)Cc1ccccc1F)C(=O)Nc1nc2ccccc2[nH]1` (stereo unspecified) had an RP-LC retention time of 692 s.

`COc1ccccc1-c1nc(-c2ccc3nnn(C(C)C)c3c2)no1` returned an RP-LC retention time of 962 s.

Molecule `CCCCN(C)C(=O)Cn1c(C2CCCN2C(C)=O)nc2ccccc21` (stereo unspecified) yielded an RP-LC retention time of 627 s.

`Cc1sc(C)c(S(=O)(=O)NC2CCCCC2)c1-c1cc(C(F)(F)F)on1`: the RP-LC retention time is 1200 s.

Take `CCn1ccc(C(=O)Nc2nnc(CSc3ccccc3)o2)n1`: the RP-LC retention time was found to be 712 s.

In turn, `O=C(NCc1ccc(Cl)cc1)c1ccc(NC(=O)C2CC2)cc1N1CCOCC1` gave an RP-LC retention time of 843 s.

`Cc1cccc(CNC(=O)C2(C)Cn3cnc(C(=O)NC4CC4)c3C(=O)N2C2CC2)c1` (stereo unspecified) displayed an RP-LC retention time of 706 s.

Turning to `COC(=O)c1ccc(C2Nc3ccc(OC)cc3[C@H]3OCCC[C@@H]23)cc1` (stereo partly specified), the RP-LC retention time was 1020 s.

The record behind these values is the METLIN SMRT retention time set (Domingo-Almenara et al. 2019).
